From ChEMBL document CHEMBL1275577, “Study of the in vitro activities of rifaximin and comparator agents against 536 anaerobic intestinal bacteria from the perspective of potential utility in pathology involving bowel flora” (Antimicrob Agents Chemother, 2009)
Values after ≈ are worked out from the molar mass of the structure shown.

How the values were obtained:
Type in all cases: functional
Ruminococcus torques = assay: Antimicrobial activity against Ruminococcus torques by Wadsworth agar dilution method; conditions: Mediterraneibacter torques
[1] = test system: Lactobacillus catenaformis; assay: Antimicrobial activity against Lactobacillus catenaformis by Wadsworth agar dilution method; conditions: Eggerthia catenaformis
Clostridium sporogenes = assay: Antimicrobial activity against Clostridium sporogenes by Wadsworth agar dilution method
Bacteroides stercoris = assay: Antimicrobial activity against Bacteroides stercoris by Wadsworth agar dilution method
Clostridium tertium = assay: Antimicrobial activity against Clostridium tertium by Wadsworth agar dilution method
[2] = test system: Clostridium lactatifermentans; assay: Antimicrobial activity against Clostridium lactatifermentans by Wadsworth agar dilution method; conditions: Anaerotignum lactatifermentans
Flavonifractor plautii = assay: Antimicrobial activity against Clostridium orbiscindens by Wadsworth agar dilution method
[3] = test system: Clostridium paraputrificum; assay: Antimicrobial activity against Clostridium paraputrificum by Wadsworth agar dilution method
Collinsella aerofaciens = assay: Antimicrobial activity against Colinsella aerofaciens by Wadsworth agar dilution method
Bacteroides caccae = assay: Antimicrobial activity against Bacteroides caccae by Wadsworth agar dilution method
Prevotella corporis = assay: Antimicrobial activity against Prevotella corporis by Wadsworth agar dilution method
Clostridium symbiosum = assay: Antimicrobial activity against Clostridium symbiosum by Wadsworth agar dilution method
Blautia producta = assay: Antimicrobial activity against Ruminococcus productus by Wadsworth agar dilution method
[Clostridium] innocuum = Antimicrobial activity against Clostridium innocuum by Wadsworth agar dilution method
[4] = test system: Porphyromonas asaccharolytica; assay: Antimicrobial activity against Porphyromonas asaccharolyticus by Wadsworth agar dilution method
[5] = test system: Propionibacterium propionicum; assay: Antimicrobial activity against Propionibacterium propionicum by Wadsworth agar dilution method; conditions: Arachnia propionica
Atopobium minutum = assay: Antimicrobial activity against Atopobium minutum by Wadsworth agar dilution method
Clostridium leptum = assay: Antimicrobial activity against Clostridium leptum by Wadsworth agar dilution method
Hoylesella loescheii = assay: Antimicrobial activity against Prevotella loescheii by Wadsworth agar dilution method
Lactobacillus jensenii = assay: Antimicrobial activity against Lactobacillus jensenii by Wadsworth agar dilution method
[6] = test system: Peptostreptococcus anaerobius; assay: Antimicrobial activity against Peptostreptococcus anaerobius by Wadsworth agar dilution method
Porphyromonas = assay: Antimicrobial activity against Porphyromonas sp. by Wadsworth agar dilution method
Fusobacterium mortiferum = assay: Antimicrobial activity against Clostridium rectum by Wadsworth agar dilution method
[7] = test system: Ruminococcus flavefaciens; assay: Antimicrobial activity against Ruminococcus flavefaciens by Wadsworth agar dilution method
[8] = test system: Prevotella melaninogenica; assay: Antimicrobial activity against Prevotella melaninogenica by Wadsworth agar dilution method
[9] = test system: Catenibacterium mitsuokai; assay: Antimicrobial activity against Catenibacterium mitsuokai by Wadsworth agar dilution method
Bacteroides nordii = assay: Antimicrobial activity against Bacteroides nordii by Wadsworth agar dilution method
[10] = Antimicrobial activity against Bifidobacterium pseudocatenulatum by Wadsworth agar dilution method
Blautia luti = assay: Antimicrobial activity against Ruminococcus luti by Wadsworth agar dilution method
Desulfovibrio sp. = assay: Antimicrobial activity against Desulfovibrio sp. by Wadsworth agar dilution method
Clostridium fallax = assay: Antimicrobial activity against Clostridium fallax by Wadsworth agar dilution method
Clostridium butyricum = assay: Antimicrobial activity against Clostridium butyricum by Wadsworth agar dilution method
Peptoniphilus harei = assay: Antimicrobial activity against Peptoniphilus harei by Wadsworth agar dilution method
Holdemania filiformis = assay: Antimicrobial activity against Holdemania filiformis by Wadsworth agar dilution method
[11] = test system: Pseudoramibacter alactolyticus; assay: Antimicrobial activity against Eubacterium alactolyticum by Wadsworth agar dilution method
Actinomyces viscosus = assay: Antimicrobial activity against Actinomyces viscosus by Wadsworth agar dilution method
Bilophila wadsworthia = assay: Antimicrobial activity against Bilophila wadsworthia by Wadsworth agar dilution method in presence of 1% pyruvic acid
[12] = test system: Parabacteroides goldsteinii; assay: Antimicrobial activity against Parabacteroides goldsteinii by Wadsworth agar dilution method
Thomasclavelia ramosa = assay: Antimicrobial activity against Clostridium ramosum by Wadsworth agar dilution method
[13] = test system: Desulfovibrio desulfuricans; assay: Antimicrobial activity against Desulfovibrio desulfuricans by Wadsworth agar dilution method
Fusobacterium varium = assay: Antimicrobial activity against Fusobacterium varium by Wadsworth agar dilution method
Anaerococcus prevotii = assay: Antimicrobial activity against Anaerococcus prevotii by Wadsworth agar dilution method
Eubacterium saburreum = assay: Antimicrobial activity against Eubacterium saburreum by Wadsworth agar dilution method; conditions: Lachnoanaerobaculum saburreum
[14] = test system: Clostridium aminobutyricum; assay: Antimicrobial activity against Clostridium aminobutyricum by Wadsworth agar dilution method
[15] = test system: Desulfovibrio fairfieldensis; assay: Antimicrobial activity against Desulfovibrio fairfieldensis by Wadsworth agar dilution method
Parabacteroides merdae = assay: Antimicrobial activity against Parabacteroides merdae by Wadsworth agar dilution method
Bifidobacterium breve = assay: Antimicrobial activity against Bifidobacterium breve by Wadsworth agar dilution method

## CO[C@H]1/C=C/O[C@@]2(C)Oc3c(C)c(O)c4c(O)c(c5c(nc6cc(C)ccn65)c4c3C2=O)NC(=O)/C(C)=C\C=C\[C@H](C)[C@H](O)[C@@H](C)[C@@H](O)[C@@H](C)[C@H](OC(C)=O)[C@@H]1C [RIFAXIMIN]
Ruminococcus torques
  MIC: 0.25 µg/mL (≈ 0.318 µM)
  MIC50: 0.25 µg/mL (≈ 0.318 µM)
  MIC90: 4 µg/mL (≈ 5.09 µM)
[1]
  MIC50: 0.5 µg/mL (≈ 0.636 µM)
  MIC90: > 1020 µg/mL
Clostridium sporogenes
  MIC: 0.25 µg/mL (≈ 0.318 µM)
  MIC50: 0.25 µg/mL (≈ 0.318 µM)
  MIC90: > 1020 µg/mL
Bacteroides stercoris
  MIC: 0.25 µg/mL (≈ 0.318 µM)
  MIC50: 0.25 µg/mL (≈ 0.318 µM)
  MIC90: 0.5 µg/mL (≈ 0.636 µM)
Clostridium tertium
  MIC: 0.25 µg/mL (≈ 0.318 µM)
  MIC50: 0.25 µg/mL (≈ 0.318 µM)
  MIC90: > 1020 µg/mL
[2]
  MIC: 0.25 µg/mL (≈ 0.318 µM)
  MIC50: 0.25 µg/mL (≈ 0.318 µM)
  MIC90: > 1020 µg/mL
Flavonifractor plautii
  MIC50: > 1020 µg/mL
  MIC90: > 1020 µg/mL
[3]
  MIC: 0.25 µg/mL (≈ 0.318 µM)
  MIC50: 0.25 µg/mL (≈ 0.318 µM)
  MIC90: > 1020 µg/mL
Collinsella aerofaciens
  MIC50: 0.5 µg/mL (≈ 0.636 µM)
  MIC90: > 1020 µg/mL
Bacteroides caccae
  MIC: 0.25 µg/mL (≈ 0.318 µM)
  MIC50: 0.25 µg/mL (≈ 0.318 µM)
  MIC90: > 0.5 µg/mL
Prevotella corporis
  MIC: 0.25 µg/mL (≈ 0.318 µM)
  MIC50: 0.25 µg/mL (≈ 0.318 µM)
  MIC90: 0.5 µg/mL (≈ 0.636 µM)
Clostridium symbiosum
  MIC: 0.25 µg/mL (≈ 0.318 µM)
  MIC50: 0.25 µg/mL (≈ 0.318 µM)
  MIC90: > 1020 µg/mL
Blautia producta
  MIC: 0.25 µg/mL (≈ 0.318 µM)
  MIC50: 0.25 µg/mL (≈ 0.318 µM)
  MIC90: 4 µg/mL (≈ 5.09 µM)
[Clostridium] innocuum
  MIC50: > 1020 µg/mL
  MIC90: > 1020 µg/mL
[4]
  MIC: 0.25 µg/mL (≈ 0.318 µM)
  MIC50: 0.25 µg/mL (≈ 0.318 µM)
  MIC90: 0.5 µg/mL (≈ 0.636 µM)
[5]
  MIC50: 0.5 µg/mL (≈ 0.636 µM)
  MIC90: > 1020 µg/mL
Atopobium minutum
  MIC50: 0.5 µg/mL (≈ 0.636 µM)
  MIC90: > 1020 µg/mL
Clostridium leptum
  MIC: 0.25 µg/mL (≈ 0.318 µM)
  MIC50: 0.25 µg/mL (≈ 0.318 µM)
  MIC90: > 1020 µg/mL
Hoylesella loescheii
  MIC: 0.25 µg/mL (≈ 0.318 µM)
  MIC50: 0.25 µg/mL (≈ 0.318 µM)
  MIC90: 0.5 µg/mL (≈ 0.636 µM)
Lactobacillus jensenii
  MIC50: 0.5 µg/mL (≈ 0.636 µM)
  MIC90: > 1020 µg/mL
[6]
  MIC: 0.25 µg/mL (≈ 0.318 µM)
  MIC50: 0.25 µg/mL (≈ 0.318 µM)
  MIC90: 4 µg/mL (≈ 5.09 µM)
Porphyromonas
  MIC: 0.25 µg/mL (≈ 0.318 µM)
  MIC50: 0.25 µg/mL (≈ 0.318 µM)
  MIC90: 0.5 µg/mL (≈ 0.636 µM)
Fusobacterium mortiferum
  MIC: 0.25 µg/mL (≈ 0.318 µM)
  MIC50: 0.25 µg/mL (≈ 0.318 µM)
  MIC90: > 1020 µg/mL
[7]
  MIC: 0.25 µg/mL (≈ 0.318 µM)
  MIC50: 0.25 µg/mL (≈ 0.318 µM)
  MIC90: 4 µg/mL (≈ 5.09 µM)
[8]
  MIC: 0.25 µg/mL (≈ 0.318 µM)
  MIC50: 0.25 µg/mL (≈ 0.318 µM)
  MIC90: 0.5 µg/mL (≈ 0.636 µM)
[9]
  MIC50: 0.5 µg/mL (≈ 0.636 µM)
  MIC90: > 1020 µg/mL
Bacteroides nordii
  MIC: 0.25 µg/mL (≈ 0.318 µM)
  MIC50: 0.25 µg/mL (≈ 0.318 µM)
  MIC90: 0.5 µg/mL (≈ 0.636 µM)
[10]
  MIC50: 0.5 µg/mL (≈ 0.636 µM)
  MIC90: > 1020 µg/mL
Blautia luti
  MIC: 0.25 µg/mL (≈ 0.318 µM)
  MIC50: 0.25 µg/mL (≈ 0.318 µM)
  MIC90: 4 µg/mL (≈ 5.09 µM)
Desulfovibrio sp.
  MIC50: 16 µg/mL (≈ 20.4 µM)
  MIC90: 332 µg/mL (≈ 422 µM)
Clostridium fallax
  MIC: 0.25 µg/mL (≈ 0.318 µM)
  MIC50: 0.25 µg/mL (≈ 0.318 µM)
  MIC90: > 1020 µg/mL
Clostridium butyricum
  MIC: 0.25 µg/mL (≈ 0.318 µM)
  MIC50: 0.25 µg/mL (≈ 0.318 µM)
  MIC90: > 1020 µg/mL
Peptoniphilus harei
  MIC: 0.25 µg/mL (≈ 0.318 µM)
  MIC50: 0.25 µg/mL (≈ 0.318 µM)
  MIC90: 4 µg/mL (≈ 5.09 µM)
Holdemania filiformis
  MIC50: 0.5 µg/mL (≈ 0.636 µM)
  MIC90: > 1020 µg/mL
[11]
  MIC50: 0.5 µg/mL (≈ 0.636 µM)
  MIC90: > 1020 µg/mL
Actinomyces viscosus
  MIC50: 0.5 µg/mL (≈ 0.636 µM)
  MIC90: > 1020 µg/mL
Bilophila wadsworthia
  MIC: 0.25 µg/mL
  MIC50: 0.25 µg/mL
  MIC90: 0.5 µg/mL
[12]
  MIC: 0.25 µg/mL (≈ 0.318 µM)
  MIC50: 0.25 µg/mL (≈ 0.318 µM)
  MIC90: 1 µg/mL (≈ 1.27 µM)
Thomasclavelia ramosa
  MIC: 0.25 µg/mL (≈ 0.318 µM)
  MIC50: 0.25 µg/mL (≈ 0.318 µM)
  MIC90: > 1020 µg/mL
[13]
  MIC: 32 µg/mL (≈ 40.7 µM)
  MIC50: 32 µg/mL (≈ 40.7 µM)
  MIC90: 64 µg/mL (≈ 81.4 µM)
Fusobacterium varium
  MIC50: 16 µg/mL (≈ 20.4 µM)
  MIC90: > 1020 µg/mL
Anaerococcus prevotii
  MIC: 0.25 µg/mL (≈ 0.318 µM)
  MIC50: 0.25 µg/mL (≈ 0.318 µM)
  MIC90: 4 µg/mL (≈ 5.09 µM)
Eubacterium saburreum
  MIC50: 0.5 µg/mL (≈ 0.636 µM)
  MIC90: > 1020 µg/mL
[14]
  MIC: 0.25 µg/mL (≈ 0.318 µM)
  MIC50: 0.25 µg/mL (≈ 0.318 µM)
  MIC90: > 1020 µg/mL
[15]
  MIC50: 16 µg/mL (≈ 20.4 µM)
  MIC90: 332 µg/mL (≈ 422 µM)
Parabacteroides merdae
  MIC: 0.25 µg/mL (≈ 0.318 µM)
  MIC50: 0.25 µg/mL (≈ 0.318 µM)
  MIC90: 1 µg/mL (≈ 1.27 µM)
Bifidobacterium breve
  MIC50: 0.5 µg/mL (≈ 0.636 µM)
  MIC90: > 1020 µg/mL
